This experiment in a line: Inhibition of BACE1 in human SH-SY5Y cells harboring wild type APP695 assessed as reduction in amyloid beta (1 to 42) level after 24 hrs by ELISA method. (In general: ELISA stands for enzyme-linked immunosorbent assay.)
On to `c1cc(-c2ccc(NCCCN3CCCCC3)c(OCCN3CCCCC3)c2)ccc1CN1CCCCC1`, for which the IC50 was 3.3 µM.
`CN(C)Cc1ccccc1-c1ccc(NCCN2CCCCC2)c(OCCN2CCCCC2)c1`: the IC50 came out at 1.2 µM.
Under `c1ccc(-c2cccc(OCCN3CCCCC3)c2)cc1` stands 13.7 µM; under `Oc1c(CN2CCCC2)cc(Nc2ccnc3cc(Cl)ccc23)cc1CN1CCCC1`, 11.2 µM; under `CC(C)CN(CCCN1CCN(CCCNc2nc3ccccc3[nH]2)CC1)CC(C)C` [(1H-Benzoimidazol-2-yl)-{3-[4-(3-diisobutylamino-propyl)-piperazin-1-yl]-propyl}-amine], 2.1 µM.
Under `CN(C)Cc1ccccc1-c1ccc(NCCCN2CCCCC2)c(OCCN2CCCCC2)c1` stands 3.4 µM; under `c1ccc(-c2ccc(NCCCN3CCCCC3)c(OCCN3CCCCC3)c2)cc1`, 4 µM.
Under `CN(C)Cc1ccccc1-c1ccc(NCCCCN2CCCCC2)c(OCCN2CCCCC2)c1` stands 1.6 µM; under `CN(C)Cc1ccn(-c2ccc(NCCCN3CCCCC3)c(OCCN3CCCCC3)c2)c1`, 6.5 µM; under `CN(C)Cc1ccccc1-c1ccc(NCCCN2CCCCC2)c(OCCC2CCCCC2)c1`, 2.8 µM.
As to `CN(C)Cc1ccc(-c2ccc(NCCCN3CCCCC3)c(OCCN3CCCCC3)c2)cc1`, the IC50 stood at 1.7 µM.
In the case of `c1cc(CN2CCCCC2)cc(-c2ccc(NCCCN3CCCCC3)c(OCCN3CCCCC3)c2)c1` it was 4.8 µM.
In the case of `c1ccc(-c2ccc(NCCCN3CCCCC3)c(OCCN3CCCCC3)c2)c(CN2CCCCC2)c1`, the IC50 was found to be 4.1 µM.
In the case of `CN(C)Cc1ccccc1-c1ccc(NCCN2CCCCC2)c(OCCCN2CCCCC2)c1` it was 1.8 µM; in that of `CN(C)Cc1ccccc1-c1ccc(NCCN2CCCCC2)c(OCCCCN2CCCCC2)c1`, 1.6 µM; in that of `c1ccc(-c2ccc(NCCCN3CCCCC3)c(OCCN3CCCCC3)c2)c(CN2CCOCC2)c1`, 4.2 µM.
For `CN(C)Cc1ccccc1-c1ccc(NCCCN2CCCCC2)cc1`, the IC50 stood at 3.6 µM.
Under `CN(C)Cc1ccccc1-c1cccc(OCCN2CCCCC2)c1` stands 1.2 µM.

As usually defined, the IC50 is the midpoint of a concentration-inhibition curve.
